In the kinase profiling compilation of Christmann-Franck et al. (2016):

Experiments:
Assay in all cases: radiometric filter-binding kinase assay
[1] = system: AKT1 (human), P31749 [S473D]
[2] = biological target: BTK (human) (UniProt Q06187)
[3] = biological target: CSNK2A1 (human) (UniProt P68400)
[4] = biological target: CaMK1 (human) (UniProt Q14012)
[5] = biological target: DYRK1A (human) (UniProt Q13627)
[6] = biological target: DYRK2 (human) (UniProt Q92630)
[7] = biological target: DYRK3 (human) (UniProt O43781)
[8] = biological target: EEF2K (human) (UniProt O00418)
Chain of EEF2K (human) (O00418 whole entry, looked up): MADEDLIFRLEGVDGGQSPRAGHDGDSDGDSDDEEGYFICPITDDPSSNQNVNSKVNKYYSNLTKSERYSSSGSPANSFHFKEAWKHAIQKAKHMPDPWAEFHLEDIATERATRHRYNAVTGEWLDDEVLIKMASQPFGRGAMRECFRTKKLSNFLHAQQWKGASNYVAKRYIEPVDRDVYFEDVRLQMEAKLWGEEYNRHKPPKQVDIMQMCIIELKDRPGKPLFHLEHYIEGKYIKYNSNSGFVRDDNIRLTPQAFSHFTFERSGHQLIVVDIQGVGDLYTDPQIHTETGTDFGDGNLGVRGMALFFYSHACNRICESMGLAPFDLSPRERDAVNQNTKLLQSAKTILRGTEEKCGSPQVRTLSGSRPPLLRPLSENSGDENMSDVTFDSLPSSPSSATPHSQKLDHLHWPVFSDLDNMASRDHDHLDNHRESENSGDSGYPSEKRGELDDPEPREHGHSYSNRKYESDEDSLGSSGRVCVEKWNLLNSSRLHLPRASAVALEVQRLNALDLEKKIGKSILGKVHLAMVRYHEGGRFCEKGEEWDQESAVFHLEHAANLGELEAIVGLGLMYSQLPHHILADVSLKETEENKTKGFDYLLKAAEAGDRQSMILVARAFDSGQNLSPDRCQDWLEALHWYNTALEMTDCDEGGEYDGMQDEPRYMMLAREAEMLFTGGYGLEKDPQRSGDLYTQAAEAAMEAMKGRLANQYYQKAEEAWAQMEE

[9] = biological target: EPHA2 (human) (UniProt P29317)
[10] = biological target: EPHB3 (human) (UniProt P54753)
[11] = biological target: HIPK2 (human) (UniProt Q9H2X6)
[12] = biological target: IKBKE (human) (UniProt Q14164)
Chain of IKBKE (human) (Q14164 whole entry, looked up): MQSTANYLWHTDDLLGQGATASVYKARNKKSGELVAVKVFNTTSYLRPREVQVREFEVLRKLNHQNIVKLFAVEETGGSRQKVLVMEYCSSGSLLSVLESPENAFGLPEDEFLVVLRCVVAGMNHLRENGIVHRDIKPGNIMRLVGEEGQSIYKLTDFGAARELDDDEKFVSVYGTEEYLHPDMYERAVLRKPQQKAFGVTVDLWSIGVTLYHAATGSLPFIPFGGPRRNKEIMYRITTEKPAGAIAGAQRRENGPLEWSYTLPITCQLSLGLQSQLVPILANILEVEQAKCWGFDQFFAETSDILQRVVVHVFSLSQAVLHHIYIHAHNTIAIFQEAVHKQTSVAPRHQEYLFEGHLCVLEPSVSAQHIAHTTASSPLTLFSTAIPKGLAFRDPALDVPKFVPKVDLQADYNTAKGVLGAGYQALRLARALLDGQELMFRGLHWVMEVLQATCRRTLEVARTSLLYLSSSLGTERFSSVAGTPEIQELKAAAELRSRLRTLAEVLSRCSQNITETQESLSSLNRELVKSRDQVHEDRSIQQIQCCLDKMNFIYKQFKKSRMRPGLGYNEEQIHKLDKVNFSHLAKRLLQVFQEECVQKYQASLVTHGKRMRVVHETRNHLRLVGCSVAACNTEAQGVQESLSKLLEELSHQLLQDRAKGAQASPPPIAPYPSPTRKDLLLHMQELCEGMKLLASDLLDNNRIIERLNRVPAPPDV

[13] = system: LCK (mouse); conditions: accession and sequence are those of the human protein
[14] = biological target: MAPK11 (human) (UniProt Q15759)
[15] = biological target: MAPK13 (human) (UniProt O15264)
[16] = biological target: MAPK14 (human) (UniProt Q16539)
[17] = biological target: MAPKAPK5 (human) (UniProt Q8IW41)
[18] = biological target: MARK3 (human) (UniProt P27448)
Chain of MARK3 (human) (P27448 whole entry, looked up): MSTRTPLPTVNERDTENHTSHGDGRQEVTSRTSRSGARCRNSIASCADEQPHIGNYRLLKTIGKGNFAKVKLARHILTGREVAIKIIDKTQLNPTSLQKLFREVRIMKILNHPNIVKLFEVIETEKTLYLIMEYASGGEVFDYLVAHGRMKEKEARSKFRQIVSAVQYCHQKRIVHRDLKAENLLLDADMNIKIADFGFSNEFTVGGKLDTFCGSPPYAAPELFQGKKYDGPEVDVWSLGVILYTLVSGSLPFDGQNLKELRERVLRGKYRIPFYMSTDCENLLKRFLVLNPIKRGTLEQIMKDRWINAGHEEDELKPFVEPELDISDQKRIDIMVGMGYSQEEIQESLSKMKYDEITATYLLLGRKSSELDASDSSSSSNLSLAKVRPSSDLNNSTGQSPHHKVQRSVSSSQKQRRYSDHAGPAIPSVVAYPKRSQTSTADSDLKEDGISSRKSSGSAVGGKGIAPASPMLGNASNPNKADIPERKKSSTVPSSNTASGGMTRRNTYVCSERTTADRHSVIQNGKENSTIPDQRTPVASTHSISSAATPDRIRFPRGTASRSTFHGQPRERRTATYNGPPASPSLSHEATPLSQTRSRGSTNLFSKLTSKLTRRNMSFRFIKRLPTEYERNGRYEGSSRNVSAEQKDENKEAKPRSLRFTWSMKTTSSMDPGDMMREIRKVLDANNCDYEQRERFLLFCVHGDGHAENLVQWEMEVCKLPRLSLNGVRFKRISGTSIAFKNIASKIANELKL

[19] = biological target: MST4 (human) (UniProt Q9P289)
[20] = biological target: NEK6 (human) (UniProt Q9HC98)
Chain of NEK6 (human) (Q9HC98 whole entry, looked up): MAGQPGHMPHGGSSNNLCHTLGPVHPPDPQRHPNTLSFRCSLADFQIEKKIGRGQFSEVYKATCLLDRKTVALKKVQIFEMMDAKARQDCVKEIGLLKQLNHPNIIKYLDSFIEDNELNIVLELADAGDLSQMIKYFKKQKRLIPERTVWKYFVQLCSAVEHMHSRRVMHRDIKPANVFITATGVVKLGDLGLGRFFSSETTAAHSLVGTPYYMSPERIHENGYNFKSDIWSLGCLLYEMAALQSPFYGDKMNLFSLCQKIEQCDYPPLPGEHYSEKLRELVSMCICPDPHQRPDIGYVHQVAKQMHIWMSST

[21] = biological target: PAK4 (human) (UniProt O96013)
[22] = biological target: PAK6 (human) (UniProt Q9NQU5)
Chain of PAK6 (human) (Q9NQU5 whole entry, looked up): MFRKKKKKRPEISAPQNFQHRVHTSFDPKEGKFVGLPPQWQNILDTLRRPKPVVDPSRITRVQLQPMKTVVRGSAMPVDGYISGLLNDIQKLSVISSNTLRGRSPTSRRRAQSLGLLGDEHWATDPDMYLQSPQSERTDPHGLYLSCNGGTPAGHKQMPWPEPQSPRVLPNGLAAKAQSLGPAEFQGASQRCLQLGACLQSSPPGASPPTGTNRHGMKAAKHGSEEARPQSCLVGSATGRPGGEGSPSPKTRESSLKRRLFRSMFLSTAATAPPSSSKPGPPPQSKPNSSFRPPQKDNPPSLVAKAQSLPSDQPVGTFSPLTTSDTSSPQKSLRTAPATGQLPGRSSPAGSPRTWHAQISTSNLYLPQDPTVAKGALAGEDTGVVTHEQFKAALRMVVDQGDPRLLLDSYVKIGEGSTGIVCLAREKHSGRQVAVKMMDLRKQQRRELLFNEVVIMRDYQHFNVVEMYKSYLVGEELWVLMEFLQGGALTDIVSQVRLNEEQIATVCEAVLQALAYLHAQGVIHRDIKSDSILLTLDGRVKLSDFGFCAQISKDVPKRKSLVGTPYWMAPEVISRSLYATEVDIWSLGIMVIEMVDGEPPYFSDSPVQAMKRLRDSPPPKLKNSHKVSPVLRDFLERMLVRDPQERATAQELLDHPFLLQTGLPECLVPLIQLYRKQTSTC

[23] = biological target: PAK7 (human) (UniProt Q9P286)
Chain of PAK7 (human) (Q9P286 whole entry, looked up): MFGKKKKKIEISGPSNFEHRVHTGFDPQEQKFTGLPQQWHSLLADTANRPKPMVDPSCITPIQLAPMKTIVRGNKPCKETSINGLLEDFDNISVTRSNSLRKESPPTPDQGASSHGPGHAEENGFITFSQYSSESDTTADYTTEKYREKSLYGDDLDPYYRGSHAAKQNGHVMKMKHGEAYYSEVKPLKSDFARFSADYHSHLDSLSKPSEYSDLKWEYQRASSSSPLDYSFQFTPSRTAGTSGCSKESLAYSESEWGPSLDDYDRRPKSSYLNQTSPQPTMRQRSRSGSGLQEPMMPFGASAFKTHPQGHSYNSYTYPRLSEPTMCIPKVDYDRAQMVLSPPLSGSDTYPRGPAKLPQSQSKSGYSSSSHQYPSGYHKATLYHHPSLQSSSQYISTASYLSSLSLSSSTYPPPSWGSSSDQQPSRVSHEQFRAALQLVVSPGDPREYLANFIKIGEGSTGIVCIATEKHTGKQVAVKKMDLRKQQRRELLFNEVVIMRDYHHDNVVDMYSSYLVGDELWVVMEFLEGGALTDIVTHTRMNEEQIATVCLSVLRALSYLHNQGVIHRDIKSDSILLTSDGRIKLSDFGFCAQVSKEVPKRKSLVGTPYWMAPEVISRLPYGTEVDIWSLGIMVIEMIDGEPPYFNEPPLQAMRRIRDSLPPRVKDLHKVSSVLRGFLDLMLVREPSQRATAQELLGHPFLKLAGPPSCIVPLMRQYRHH

[24] = biological target: PRKCZ (human) (UniProt Q05513)
[25] = system: ROCK2 (rat); conditions: accession and sequence are those of the human protein
[26] = biological target: RPS6KA5 KD1 KD2 (human) (UniProt O75582)

Chain of DYRK2 (human) (Q92630 whole entry, looked up): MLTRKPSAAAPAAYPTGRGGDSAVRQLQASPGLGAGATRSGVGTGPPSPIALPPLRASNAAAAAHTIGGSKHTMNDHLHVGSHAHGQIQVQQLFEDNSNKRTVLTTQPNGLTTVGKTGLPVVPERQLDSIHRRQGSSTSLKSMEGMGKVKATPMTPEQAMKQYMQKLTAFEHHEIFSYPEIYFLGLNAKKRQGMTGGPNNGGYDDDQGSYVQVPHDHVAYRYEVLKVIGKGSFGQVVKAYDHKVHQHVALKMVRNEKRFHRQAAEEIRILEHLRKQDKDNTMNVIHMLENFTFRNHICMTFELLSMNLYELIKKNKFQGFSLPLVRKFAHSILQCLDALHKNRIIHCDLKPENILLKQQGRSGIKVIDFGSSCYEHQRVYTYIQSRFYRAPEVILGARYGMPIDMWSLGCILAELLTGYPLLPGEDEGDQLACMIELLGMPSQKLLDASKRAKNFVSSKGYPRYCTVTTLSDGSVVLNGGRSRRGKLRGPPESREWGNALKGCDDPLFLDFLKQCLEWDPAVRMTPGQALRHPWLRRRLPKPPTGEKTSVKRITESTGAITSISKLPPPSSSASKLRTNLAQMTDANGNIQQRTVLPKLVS
Chain of CaMK1 (human) (Q14012 whole entry, looked up): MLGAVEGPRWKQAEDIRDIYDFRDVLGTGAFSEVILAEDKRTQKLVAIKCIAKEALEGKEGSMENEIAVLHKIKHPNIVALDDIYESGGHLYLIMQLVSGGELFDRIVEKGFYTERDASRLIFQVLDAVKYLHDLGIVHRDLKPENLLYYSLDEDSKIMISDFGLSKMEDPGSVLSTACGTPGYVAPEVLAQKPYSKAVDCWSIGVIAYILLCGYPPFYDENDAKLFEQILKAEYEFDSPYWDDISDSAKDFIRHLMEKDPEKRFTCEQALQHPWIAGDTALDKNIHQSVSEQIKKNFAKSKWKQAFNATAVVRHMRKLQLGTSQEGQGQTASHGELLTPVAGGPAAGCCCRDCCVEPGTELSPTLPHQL

For `C[C@H]1CCCC(=O)CCC/C=C/c2cc(O)cc(O)c2C(=O)O1`, the residual activity ([1]; compound 10.0 µM) was 95%, the residual activity ([2]; compound 1.0 µM) was 107% and the residual activity ([2]; compound 10.0 µM) was 69%. It also gave a residual activity ([3]; compound 1.0 µM) of 97%, a residual activity ([3]; compound 10.0 µM) of 96% and a residual activity ([4]; compound 1.0 µM) of 101%. The residual activity ([4]; compound 10.0 µM) was 75%, the residual activity ([5]; compound 10.0 µM) was 32% and the residual activity ([6]; compound 1.0 µM) was 90%. It also gave a residual activity ([6]; compound 10.0 µM) of 62%, a residual activity ([7]; compound 1.0 µM) of 100% and a residual activity ([7]; compound 10.0 µM) of 62%. It also gave a residual activity ([8]; compound 1.0 µM) of 101%, a residual activity ([8]; compound 10.0 µM) of 85% and a residual activity ([9]; compound 1.0 µM) of 69%. It also gave a residual activity ([9]; compound 10.0 µM) of 26%, a residual activity ([10]; compound 1.0 µM) of 85% and a residual activity ([10]; compound 10.0 µM) of 85%. It also gave a residual activity ([11]; compound 1.0 µM) of 100%, a residual activity ([11]; compound 10.0 µM) of 63% and a residual activity ([12]; compound 1.0 µM) of 95%. The residual activity ([12]; compound 10.0 µM) was 82%, the residual activity ([13]; compound 1.0 µM) was 69% and the residual activity ([13]; compound 10.0 µM) was 26%. It also gave a residual activity ([14]; compound 1.0 µM) of 108%, a residual activity ([14]; compound 10.0 µM) of 101% and a residual activity ([15]; compound 1.0 µM) of 84%. For the same compound, the residual activity ([15]; compound 10.0 µM) was 87%, the residual activity ([16]; compound 1.0 µM) was 93% and the residual activity ([16]; compound 10.0 µM) was 85%. For the same compound, the residual activity ([17]; compound 1.0 µM) was 97%, the residual activity ([17]; compound 10.0 µM) was 79% and the residual activity ([18]; compound 1.0 µM) was 102%. The residual activity ([18]; compound 10.0 µM) was 99%, the residual activity ([19]; compound 10.0 µM) was 66% and the residual activity ([20]; compound 1.0 µM) was 91%. The residual activity ([20]; compound 10.0 µM) was 91%, the residual activity ([21]; compound 1.0 µM) was 95% and the residual activity ([21]; compound 10.0 µM) was 90%. It also gave a residual activity ([22]; compound 1.0 µM) of 99%, a residual activity ([22]; compound 10.0 µM) of 94% and a residual activity ([23]; compound 1.0 µM) of 93%. For the same compound, the residual activity ([23]; compound 10.0 µM) was 80%, the residual activity ([24]; compound 1.0 µM) was 98% and the residual activity ([24]; compound 10.0 µM) was 86%. It also gave a residual activity ([25]; compound 1.0 µM) of 82%, a residual activity ([25]; compound 10.0 µM) of 81% and a residual activity ([26]; compound 10.0 µM) of 36%.
`NC(=O)Nc1ccc2c(c1)/C(=C/c1cc(-c3cccnc3)c[nH]1)C(=O)N2` was tested, and the residual activity ([1]; compound 0.1 µM) was 85%, the residual activity ([1]; compound 1.0 µM) was 69% and the residual activity ([1]; compound 10.0 µM) was 62%. For the same compound, the residual activity ([2]; compound 0.1 µM) was 86%, the residual activity ([2]; compound 1.0 µM) was 29% and the residual activity ([2]; compound 10.0 µM) was 9%. The residual activity ([3]; compound 0.1 µM) was 93%, the residual activity ([3]; compound 1.0 µM) was 65% and the residual activity ([3]; compound 10.0 µM) was 21%. The residual activity ([4]; compound 0.1 µM) was 112%, the residual activity ([4]; compound 1.0 µM) was 69% and the residual activity ([4]; compound 10.0 µM) was 19%. The residual activity ([5]; compound 0.1 µM) was 42%, the residual activity ([5]; compound 1.0 µM) was 11% and the residual activity ([6]; compound 0.1 µM) was 19%. For the same compound, the residual activity ([6]; compound 1.0 µM) was 2%, the residual activity ([6]; compound 10.0 µM) was 0% and the residual activity ([7]; compound 0.1 µM) was 19%. The residual activity ([7]; compound 1.0 µM) was 4%, the residual activity ([7]; compound 10.0 µM) was 1% and the residual activity ([8]; compound 0.1 µM) was 102%. The residual activity ([8]; compound 1.0 µM) was 86%, the residual activity ([8]; compound 10.0 µM) was 116% and the residual activity ([9]; compound 0.1 µM) was 93%. It also gave a residual activity ([9]; compound 1.0 µM) of 54%, a residual activity ([9]; compound 10.0 µM) of 20% and a residual activity ([10]; compound 0.1 µM) of 107%. The residual activity ([10]; compound 1.0 µM) was 90%, the residual activity ([10]; compound 10.0 µM) was 53% and the residual activity ([11]; compound 0.1 µM) was 33%. The residual activity ([11]; compound 1.0 µM) was 7%, the residual activity ([11]; compound 10.0 µM) was 1% and the residual activity ([12]; compound 0.1 µM) was 51%. It also gave a residual activity ([12]; compound 1.0 µM) of 12%, a residual activity ([12]; compound 10.0 µM) of 11% and a residual activity ([13]; compound 0.1 µM) of 44%. It also gave a residual activity ([13]; compound 1.0 µM) of 10%, a residual activity ([13]; compound 10.0 µM) of 3% and a residual activity ([14]; compound 0.1 µM) of 103%. It also gave a residual activity ([14]; compound 1.0 µM) of 80%, a residual activity ([14]; compound 10.0 µM) of 49% and a residual activity ([15]; compound 0.1 µM) of 85%. The residual activity ([15]; compound 1.0 µM) was 62%, the residual activity ([15]; compound 10.0 µM) was 22% and the residual activity ([16]; compound 0.1 µM) was 81%. It also gave a residual activity ([16]; compound 1.0 µM) of 80%, a residual activity ([16]; compound 10.0 µM) of 45% and a residual activity ([17]; compound 0.1 µM) of 95%. The residual activity ([17]; compound 1.0 µM) was 50%, the residual activity ([17]; compound 10.0 µM) was 8% and the residual activity ([18]; compound 0.1 µM) was 16%. For the same compound, the residual activity ([18]; compound 1.0 µM) was 5%, the residual activity ([18]; compound 10.0 µM) was 3% and the residual activity ([19]; compound 1.0 µM) was 18%. For the same compound, the residual activity ([19]; compound 10.0 µM) was 21%, the residual activity ([20]; compound 0.1 µM) was 92% and the residual activity ([20]; compound 1.0 µM) was 76%. The residual activity ([20]; compound 10.0 µM) was 38%, the residual activity ([21]; compound 0.1 µM) was 64% and the residual activity ([21]; compound 1.0 µM) was 31%. The residual activity ([22]; compound 0.1 µM) was 86%, the residual activity ([22]; compound 1.0 µM) was 77% and the residual activity ([22]; compound 10.0 µM) was 38%. The residual activity ([23]; compound 0.1 µM) was 75%, the residual activity ([23]; compound 1.0 µM) was 43% and the residual activity ([23]; compound 10.0 µM) was 8%. It also gave a residual activity ([24]; compound 0.1 µM) of 85%, a residual activity ([24]; compound 1.0 µM) of 66% and a residual activity ([24]; compound 10.0 µM) of 21%. For the same compound, the residual activity ([25]; compound 1.0 µM) was 37%, the residual activity ([25]; compound 10.0 µM) was 7% and the residual activity ([26]; compound 0.1 µM) was 98%. It also gave a residual activity ([26]; compound 1.0 µM) of 73% and a residual activity ([26]; compound 10.0 µM) of 30%.
